Experimental data reported in patent publication US20020022586A1, “Method for treating a patient with neoplasia by treatment with a pyrimidine analog” (priority 1998, published 2002).

Columns and labels:
PDE peak A (PDE5) = target: T1, PDE peak A (PDE5) (Homo sapiens, UniProt O76074); experiment: cGMP hydrolysis by PDE peak A isolated from SW-480 cells; format: biochemical
T1 construct: SW-480 cells are collected and homogenized; endogenous in cells; host or cells: SW-480 human colon adenocarcinoma cells; supernatant of homogenate fractionated on DEAE-Trisacryl M

[1] = system: premalignant lesions in mouse mammary gland organ culture; experiment: Mammary gland organ culture model; format: cell-based; conditions: for Mammary Gland Organ Culture: activity profile; on mammary gland organ culture: key: −: Not active; +: Slightly active; ++: Moderately active; +++: Strongly active; ++++: Highly active
Experimental: For example, female BALB/c mice can be treated with a combination of estradiol and progesterone daily, in order to prime the glands to be responsive to hormones in vitro. The animals are sacrificed and thoracic mammary glands are excised aseptically and incubated for ten days in growth media supplemented with insulin, prolactin, hydrocortisone, and aldosterone. DMBA (7,12-dimethylbenz(a)anthracene) is added to medium to induce the formation of premalignant lesions. Fully developed glands are then deprived of prolactin, hydrocortisone, and aldosterone, resulting in the regression of the glands but not the premalignant lesions.
The test compound is dissolved in DMSO and added to the culture media for the duration of the culture period. At the end of the culture period, the glands are fixed in 10% formalin, stained with alum carmine, and mounted on glass slides. The extent of the area occupied by the mammary lesions can be quantitated by projecting an image of the gland onto a digitation pad. The area covered by the gland is traced on the pad and considered as 100% of the area. The space covered by each of the unregressed structures is also outlined on the digitization pad and quantitated by the computer.
The incidence of forming mammary lesions is the ratio of the glands with mammary lesions to […]. The incidence of mammary lesions in test compound treated glands is compared with that of the untreated glands.
Mammary gland organ culture experiments were performed as previously described (Mehta and Moon, Cancer Research, 46: 5832-5835, 1986). […] The data support the hypothesis that cyclooxygenase inhibition is not necessary for the anti-neoplastic properties of desired compounds.

HT-29 cells [2] = experiment: Apoptosis and necrosis by morphology (acridine orange/ethidium bromide) in HT-29 cells; format: cell-based, human; conditions: 120 μM, time course
Description: Following treatment with a test compound, cultures can be assayed for apoptosis and necrosis by fluorescent microscopy following labeling with acridine orange and ethidium bromide. The method for measuring apoptotic cell number has previously been described by Duke & Cohen, “Morphological And Biochemical Assays Of Apoptosis,” Current Protocols In Immunology, Coligan et al., eds., 3.17.1-3.17.16 (1992, which is incorporated herein by reference).
For example, floating and attached cells can be collected, and aliquots of cells can be centrifuged. The cell pellet can then be resuspended in media and a dye mixture containing acridine orange and ethidium bromide. The mixture can then be examined microscopically for morphological features of apoptosis.
Reference compounds and test compounds were analyzed for their cGMP-specific PDE inhibitory activity in accordance with the protocols for the assay, supra. […] Apoptotic and necrotic cell death was determined as previously described (Duke and Cohen, In: Current Protocols in Immunology, 3.17.1-3.17.16, New York, John Wiley and Sons, 1992). […] All data were collected from the same experiment.
The apoptosis inducing activity for a series of phosphodiesterase inhibitors was determined. HT-29 cell were treated for 6 days with various inhibitors of phosphodiesterase. Apoptosis and necrosis were determined morphologically after acridine orange and ethidium bromide labeling in accordance with the assay described, supra.

HT-29 cells [3] = experiment: cGMP levels in cultured HT-29 cells by radioimmunoassay; format: cell-based, human; conditions: HT-29 cells treated 30 minutes
COX = COX inhibition; format: biochemical
MCF7/S, Breast = experiment: Growth inhibition of various cell lines (Table 5); format: cell-based; conditions: Homo sapiens, MCF7S
Experimental: To show the effectiveness of cGMP-specific PDE inhibition on various forms of neoplasia, compounds were tested on numerous cell lines. […] The IC50 values were determined by the SRB assay. […] Therefore, compounds selected for cGMP-specific PDE inhibition in combination with a pyrimidine analog should be useful for treating neoplasia, in particular breast, colorectal and pancreatic cancers.

HT-29 cells [4] = experiment: HT-29 growth inhibition by counting viable cells after trypan blue staining; format: cell-based, human; conditions: 120 μM, time course
Experimental: Growth inhibition (FIG. 9A, top) was measured by counting viable cells after trypan blue staining. Apoptosis (FIG. 9B, bottom) was measured by morphological determination following staining with acridine orange and ethidium bromide as described previously (Duke and Cohen, In: Current Protocols in Immunology, 3.17.1-3.17.16, New York, John Wiley and Sons, 1992). […] All data were collected from the same experiment.

HT-29 cells [5] = experiment: HT-29 tumor cell growth inhibition, SRB assay; format: cell-based, human; design: Growth Inhibition: key to the marks not given beside the values
HT-29 cells [6] = experiment: Apoptosis by DNA fragmentation assay in HT-29 cells; format: cell-based, human; design: Apoptosis: key to the marks not given beside the values
PDE4 = PDE4 inhibition assay, enzyme from HT-29 tumor cells; format: biochemical, human; conditions: enzyme from HT-29 cells
Experimental: Cyclic GMP labeled with tritium (^3H-cGMP) is used as the substrate for the PDE enzymes. (Thompson, W. J., Teraski, W. L., Epstein, P. M., Strada, S. J., Advances in Cyclic Nucleotide Research, 10:69-92, 1979, which is incorporated herein by reference).
In brief, a solution of defined substrate ^3H-cGMP specific activity is mixed with the drug to be tested. The mixture is incubated with isolated PDE activity (either a single PDE or a mixture of PDE activities). The degree of phosphodiesterase inhibition is determined by calculating the amount of radioactivity released in drug-treated reactions and comparing those against a control sample (a reaction mixture lacking the tested compound but with the drug solvent).
Reference compounds and test compounds were analyzed for their cGMP-PDE inhibitory activity in accordance with the protocol for the assay described supra. […] Both compounds show selectivity for the cGMP-PDE isoenzyme forms over PDE4 isoforms.

cGMP-PDE [7] = experiment: cGMP-PDE inhibition assay, enzyme from HT-29 tumor cells; format: biochemical, human; design: PDE Inhibition: key to the marks not given beside the values; conditions: activity profile
cGMP-PDE [8] = system: T2, cGMP-PDE; experiment: as above; format: biochemical, human; design: PDE Inhibition: key to the marks not given beside the values
T2 construct: other: 10 μM; other: 100 μM; other: enzyme from HT-29 cells; other: 20 μM

Row | Compound | IC50 (PDE peak A (PDE5)) [µM] | Mammary Gland Organ Culture [1] | inhibition of premalignant lesions ([1]; mammary gland organ culture) | apoptosis by morphology (HT-29 cells [2]) | increase of cGMP levels (HT-29 cells [3]) | COX Inhibition (COX; activity profile) | IC50 (MCF7/S, Breast) [µM] | growth inhibition, viable cell count (HT-29 cells [4]) | inhibition at 100 µM (HT-29 cells [5]; Homo sapiens, HT-29, 100 μM single dose, read-out: Growth inhibitory activity, % Inhibition at 100 μM) [%] | Growth Inhibition (HT-29 cells [5]; activity profile) | fold induction at 100 µM (HT-29 cells [6]; Homo sapiens, HT-29, 100 μM, read-out: Apoptosis inducing activity, Fold induction at 100 μM) | EC50 (HT-29 cells [6]; Homo sapiens, HT-29, 48 hours, DNA fragmentation, read-out: EC50 for apoptosis induction) [µM] | Apoptosis (HT-29 cells [6]; activity profile) | COX Inhibition (COX; 100 μM) | IC50 (PDE4) [µM] | PDE Inhibition (cGMP-PDE [7]) | cGMP PDE % Inhibition at 100 μM (cGMP-PDE [8]; 100 μM) [%] | IC50 (cGMP-PDE [8]; enzyme from HT-29 cells) [µM]
1 | CSc1ccc(/C=C2/C(C)=C(CC(=O)O)c3cc(F)ccc32)cc1 [Sulindac sulfide] | 50 | − | inactive | increase in apoptosis | greater than 50% | ++++ | 30 | capable of inhibiting tumor cell growth |  |  |  |  |  |  |  |  |  | 
2 | COc1cc(/C=C2/C(C)=C(CC(=O)O)c3cc(F)ccc32)cc(OC)c1OC [Compound B, (Z)-5-Fluoro-2-methyl-1-(3,4,5-trimethoxybenzylidene)-3-acetic acid] |  | ++ |  |  |  | − |  |  | 77 | +++ | > 2 | ~175 | +++ | did not inhibit COX | 58 | +++ | <25 | 18
